Key:
[1] = test system: popliteal lymph nodes; assay: MRT demonstration of lymph nodes after intravenous administration in rats; type: in vivo; details: i.v., 50 μmol of Gd/kg, 1.5 T, early points in time (up to 60 min p.i.)
Source text: The figures show exemplary MR shots of popliteal lymph nodes at different points in time after intravenous administration of 50 μmol of Gd/kg of body weight of the substance from Example 2c) in FIG. 1, of the substance from Example 21 c) in FIG. 2, and of the substance from Example 22 c) in FIG. 3 in rats.

[2] = test system: histamine; assay: Release of histamine after single intravenous administration in rats (plasma histamine, ELISA); type: in vivo; details: for Histamine, baseline: before contrast agent administration; for Histamine, 10 min p.i. / Histamine, 30 min p.i. / Histamine, 60 min p.i.: i.v.
Description: After intravenous administration of the substances from Examples 2c) and 22 c) in rats (n=3), the release of histamine was determined at different points in time. For this, blood was taken from the carotid artery before and 10, 30 and 60 minutes after contrast agent administration, and the histamine contained in the plasma was determined by means of an ELISA system. The histamine values measured can be seen in Table 2. The histamine blank values in the conscious rats were in the normal range known from the literature.

[3] = Plasma kinetics after intravenous administration in rats (ICP-AES, WinNonlin); type: in vivo; details: i.v., 50 μmol of total gadolinium/kg
Description: After intravenous administration of 50 μmol of total gadolinium/kg of body weight of the substances from Examples 2c), 21 c) and 22 c) in rats (n=3), blood samples were taken at different points in time (up to 24 h p.i.) by means of a catheter in the common carotid artery, and the metal content was determined by means of atomic emission spectrometry (ICP-AES) and converted to plasma values by means of a conversion factor (0.625). The pharmacokinetic parameters (Table 4) were calculated from the plasma concentrations by means of special software (WinNonlin).

[4] = Excretion after intravenous administration in rats (ICP-AES); type: in vivo; details: i.v., 50 μmol of total gadolinium/kg; for Gd content, rest of body: 14 days after administration; for Gd content, faeces / Gd content, urine: up to 14 days after administration
Description: After intravenous administration of 50 μmol of total gadolinium/kg of body weight of substances from Examples 2c), 21 c) and 22 c) in rats (n=3), the metal content was determined fractionally up to 14 days after administration by means of atomic emission spectrometry (ICP-AES) in the excretion medium urine and faeces, and in the body (rest of body) (Table 3).

[5] = in vivo; cited from earlier work
[6] = Relaxivity: T1 and T2 relaxation times of water and plasma (bovine), NMR pulse spectrometer (Minispec PC 20); type: physicochemical; details: for Relaxivity R1 / Relaxivity R2: 40° C., 0.47 T
Description: The T1 and T2 relaxation times of water and plasma (bovine) having increasing concentrations of the substance from Example 2c) contained therein were determined at 40° C. using an NMR pulse spectrometer (Minispec PC 20) at 0.47 T (Table 1).
From the R1 relaxivities in water at high and low concentrations, a critical micelle formation concentration (CMC) of 0.02 mmol of Gd/I can be determined.

[7] = test system: mice; assay: Acute toxicity after single intravenous administration in mice (exploratory); type: in vivo; details: injection rate 2 ml/min, observation period 7 days
Description: After intravenous administration of the substances of Examples 2c), 21 c) and 22 c) in mice (n=3; injection rate: 2 ml/min), the acute systemic tolerability (LD50) was determined in an exploratory manner. In each case, a number of doses were investigated using an observation period of 7 days. The average acute toxicities to be expected were 2.5 mmol of Gd/kg of body weight for the substance from Example 2c) and >10.0 mmol of Gd/kg of body weight for the substances from Examples 21c) and 22 c).

[8] = plasma (bovine), Gd concentration 0.271-1.086 mmol/l
[9] = water, Gd concentration 0.000-0.009 mmol/l
[10] = water, Gd concentration 0.020-1.099 mmol/l

Row | Substance | signal in the functional lymph node tissue (T1-weighted MR shots) [1] | Histamine, baseline [2] [ng/mL] | Histamine, 10 min p.i. [2] [ng/mL] | Histamine, 30 min p.i. [2] [ng/mL] | Histamine, 60 min p.i. [2] [ng/mL] | Vc [3] [L/kg] | Vd ss [3] [L/kg] | α-t½ [3] [min] | β-t½ [3] [min] | Gd content, rest of body [4] [% dose] | Gd content, faeces [4] [% dose] | Gd content, urine [4] [% dose] | also measured
1 | 1,4,7-Tris(carboxylatomethyl)-10-[(3-aza-4-oxo-5-methyl-5-yl)acid N-(1H,1H,2H,2H,4H,4H,-3,6,9,12-tetraoxaperfluorohexadecyl)-N-{2-[2-(2-methoxyethoxy)ethoxy]-ethyl}amide]1,4,7,10-tetraazacyclododecane, Gd complex [Example 22c] | strong signal increase | 3 ± 1 | 7 ± 3 | 4 ± 1 | 4 ± 1 | 0.04 ± 0.00 | 0.06 ± 0.00 | 23.6 ± 0.6 | 108 ± 18 | 0.0 ± 0.0 | 83.4 ± 2.6 | 1.8 ± 0.1 | –
2 | Mn-TPPS | – | – | – | – | – | – | – | – | – | – | – | – | LD50 [5]: 0.5 mmol/kg; dose at which an action commences [5]: 0.2 mmol/kg
3 | 1,4,7-Tris(carboxylatomethyl)-10-{(3-aza-4-oxo-5-methyl-5-yl)-acid-N-(1H,1H,2H,2H,4H,4H,-3,6,9,12-tetraoxaperfluorohexadecyl)-N-[2-(2-methoxyethoxy)ethyl]amide}-1,4,7,10-tetraazacyclododecane, Gd complex [Example 21c] | strong signal increase | – | – | – | – | 0.04 ± 0.00 | 0.05 ± 0.00 | 28.4 ± 1.5 | 78 ± 12 | 0.0 ± 0.0 | 84.9 ± 0.7 | 3.8 ± 0.1 | –
4 | 1,4,7-Tris(carboxylatomethyl)-10-[(3-aza-4-oxo-5-methyl-5-yl)-acid N-(1H,1H,2H,2H,4H,4H,-3,6,9,12-tetraoxaperfluorohexadecyl)-N-(2-methoxyethyl)amide]-1,4,7,10-tetraazacyclododecane, Gd complex [Example 2c] | strong signal increase | 3 ± 2 | 4 ± 4 | 5 ± 3 | 3 ± 2 | 0.05 ± 0.00 | 0.08 ± 0.01 | 18.7 ± 2.0 | 72 ± 12 | 0.2 ± 0.3 | 92.9 ± 1.5 | 0.8 ± 0.2 | critical micelle formation concentration (CMC) ([6]; from the R1 relaxivities in water at high and low concentrations): 0.02 mmol of Gd/I; protein bond (relaxivity in plasma greater than in water) ([6]; plasma (bovine) versus water): indicates a protein bond; Relaxivity R1 [6, 8]: 26.0 ± 0.5 L/mmol/s; Relaxivity R2 [6, 8]: 35.1 ± 0.3 L/mmol/s; Relaxivity R1 [6, 9]: 5.3 ± 0.4 L/mmol/s; Relaxivity R2 [6, 9]: 5.3 ± 1.2 L/mmol/s; Relaxivity R1 [6, 10]: 17.8 ± 0.1 L/mmol/s; Relaxivity R2 [6, 10]: 16.3 ± 0.2 L/mmol/s; acute systemic tolerability (LD50) [7]: 2.5 mmol of Gd/kg of body weight

— patent US8263040B2, “Metal chelates having a perfluorinated PEG radical, processes for their preparation, and their use” (Bayer Schering Pharma AG, priority 2006, dated 2012)
